Assay results published in paper PMC6271975, “Structure-Activity Relationship Study of Sesquiterpene Lactones and Their Semi-Synthetic Amino Derivatives as Potential Antitrypanosomal Products” (Molecules, 2014).
Where “and” joins values, the source holds several entries; their conditions need not be identical. Equal entries are not always repeated. Where two headings read alike, the source gives them in different places.

How the values were obtained:
[1] = tested on: rat skeletal myoblasts (L6-cells); assay: cells; assay type: cell-based; details: for IC50: read-out: L6 cells IC50
Protocol: The cytotoxicity assay was performed with rat skeletal myoblasts (L6-cells) seeded in 100 μL RPMI 1640 in 96-well micro titre plates, using the Alamar Blue assay described above. After 24 h the medium was removed and replaced by 100 μL of fresh RPMI 1640 with serial threefold drug dilution. Podophyllotoxin (purity > 95%, Sigma-Aldrich) was used as a reference drug. After 70 h of incubation under a humidified 5% CO2 atmosphere, 10 μL of the Alamar blue marker (see above) was added to all wells. The plates were incubated for an additional 2 h. A Spectramax Gemini XS micro plate fluorescence reader (Molecular Devices) was used to read the plates using an excitation wavelength of 536 nm and an emission wavelength of 588 nm. The IC50s were calculated from the sigmoidal growth inhibition curves using Softmax Pro software (Molecular Devices).

[2] = tested on: T. b. rhodesiense STIB 900 bloodstream forms; assay: In vitro antitrypanosomal Alamar Blue assay; assay type: cell-based, Trypanosoma brucei rhodesiense; details: for SI (Selectivity Index): IC50 against L6 cells divided by IC50 against STIB 900 strain; for IC50: read-out: T. brucei STIB 900 IC50
Protocol: Evaluation of in vitro antiprotozoal activity against T. b. rhodesiense was done using the Alamar Blue assay to determine IC50s as previously described. Serial threefold dilution were prepared in 96-well micro titre plates, and 4000 T. b. rhodesiense STIB 900 bloodstream forms in 50 μL were added to each well except for the negative controls. Melarsoprol (Arsobal®, purity > 95%, Sanofi-Aventis, Meyrin, Switzerland) was used as reference drugs. […] The IC50 values were calculated from the sigmoidal growth inhibition curves using Softmax Pro software (Molecular Devices).

[3] = tested on: T. b. rhodesiense STIB 900 bloodstream forms; parameters: method as in PMID 22331812, PMID 24080104, PMID 21624443, PMID 22396915; details: cited from earlier work; for SI (Selectivity Index): IC50 against L6 cells divided by IC50 against STIB 900 strain, previously reported compounds; for IC50: previously reported compounds included for comparison, compound 9 tested once, read-out: T. brucei STIB 900 IC50
[4] = tested on: rat skeletal myoblasts (L6-cells); parameters: method as in PMID 22331812, PMID 24080104, PMID 21624443, PMID 22396915; details: cytotoxicity; previously reported compounds included for comparison; cited from earlier work
[5] = Rattus norvegicus, L6, 70 h, cytotoxicity, 70 h incubation, average of three independent assays
[6] = Trypanosoma brucei, 70 h, 70 h incubation, average of three independent assays
[7] = Rattus norvegicus, L6, cytotoxicity, 70 h incubation, average of three independent assays
[8] = Trypanosoma brucei, 70 h incubation, average of three independent assays
[9] = 70 h incubation, average of three independent assays

| Compound | IC50 [1, 5] | SI (Selectivity Index) [2] | IC50 [2, 6] | other results |
| --- | --- | --- | --- | --- |
| C=C1C(=O)O[C@@H]2/C=C(/C)[C@@H](O)C/C=C(\C)C[C@H](OC(=O)/C(C)=C\C)[C@@H]12 [Compound 14, Nobilin] | – | – | – | IC50 ([1]; Rattus norvegicus, L6, 70 h): 10.5 ± 0.1 µM |
| CC12CCC3C(CNCCc4ccc(Cl)cc4)C(=O)OC3C13C=CC(=O)C23C (centres unmarked) [Compound 33, 2-(4-Chlorophenyl)ethylamine adduct] | 27.6 ± 6.7 µM | 2.7 | 10.2 ± 3.2 µM | – |
| C=C1C(=O)O[C@@H]2/C=C(\CO)CC/C=C(\C)C[C@H](OC(=O)C(=C)[C@H](O)CO)[C@@H]12 [Compound 3, Cnicin] | 4.2 ± 0.9 µM | 10 | 0.4 ± 0.1 µM | – |
| CC1=C2[C@H]3OC(=O)[C@@H](C)[C@@H]3CC[C@@]2(C)C=CC1=O [Compound 17, Santonin] | – | >8.8 | – | IC50 [1, 7]: > 366 µM; IC50 [2, 8]: 41.5 ± 0.8 µM |
| CC1C(=O)CCC2(C)CCC3C(CN4CCOCC4)C(=O)OC3C12 (centres unmarked) [Compound 23, Morpholine adduct] | 65.6 ± 9.7 µM | 5.6 | 11.8 ± 2.7 µM | – |
| CC1C(=O)C=CC2(C)CCC3C(CNCCc4ccc(O)cc4)C(=O)OC3C12 (centres unmarked) [Compound 26, Tyramine adduct] | > 236 µM | >35.0 | 6.7 ± 1.3 µM | – |
| CC1C(=O)C=CC2(C)CCC3C(CN4CCOCC4)C(=O)OC3C12 (centres unmarked) [Compound 24, Morpholine adduct] | 31.3 ± 1.4 µM | 13.3 | 2.4 ± 0.7 µM | – |
| CC1=C2C3OC(=O)C(CNCCc4ccc(O)cc4)C3CCC2(C)C=CC1=O (centres unmarked) [Compound 28, Tyramine adduct] | 87.9 ± 2.2 µM | 6.5 | 13.4 ± 1.1 µM | – |
| CC1C(=O)CCC2(C)CCC3C(CNCCc4ccc(O)cc4)C(=O)OC3C12 (centres unmarked) [Compound 27, Tyramine adduct] | 45.6 ± 3.2 µM | 4 | 13 ± 1.4 µM | – |
| Nc1nc(N)nc(Nc2ccc([As]3SCC(CO)S3)cc2)n1 (centres unmarked) [Melarsoprol, reference compound] | – | 2170 | – | IC50 ([1]; Rattus norvegicus, L6, 70 h): 21.7 ± 8.7 µM; IC50 ([2]; Trypanosoma brucei, 70 h): 0.01 ± 0.01 µM |
| COc1cc([C@@H]2c3cc4c(cc3[C@H](O)[C@H]3COC(=O)[C@H]23)OCO4)cc(OC)c1OC [Podophyllotoxin, reference compound] | – | – | – | IC50 ([1]; Rattus norvegicus, L6, 70 h): 0.02 ± 0.01 µM |
| CC(=O)OC1(C)CCC2C(CN3CCOCC3)C(=O)OC2C2=C(C)C(=O)CC21 (centres unmarked) [Compound 22, Morpholine adduct] | 7.4 ± 0.8 µM | 10.3 | 0.7 ± 0.1 µM | – |
| CC12CCC3C(CN4CCOCC4)C(=O)OC3C13C=CC(=O)C23C (centres unmarked) [Compound 25, Morpholine adduct] | 9.9 ± 1.6 µM | 3.8 | 2.6 ± 0.5 µM | – |
| CC1=C2C3OC(=O)C(CNCc4ccc(Cl)cc4)C3CCC2(C)C=CC1=O (centres unmarked) [Compound 32, 4-Chlorobenzylamine adduct] | 34.8 ± 1.2 µM | 3.4 | 10.6 ± 1.5 µM | – |
| C=C1CC[C@H]2C(=C)CC[C@H]3C(=C)C(=O)O[C@@H]3[C@@H]12 [Compound 6, dehydrocostuslactone] | – | – | – | SI (Selectivity Index) [3]: 1.9; IC50 [3]: 4.4 ± 1.2 µM; IC50 [4]: 8.3 ± 1.9 µM |
| CC(=O)OC1(C)CCC2C(CNCCc3ccc(O)cc3)C(=O)OC2C2=C(C)C(=O)CC21 (centres unmarked) [Compound 29, Tyramine adduct] | 22.1 ± 4 µM | 3.3 | 6.6 ± 0.7 µM | – |
| CC1=C2C3OC(=O)C(C)C3CCC(C)(O)C2CC1O (centres unmarked) [Compound 15, 3-Hydroxyisophotosantonin] | 353 ± 4 µM | 6.4 | 54.7 ± 8 µM | – |

| Compound | IC50 [1, 5] | SI (Selectivity Index) [2] | IC50 [2, 6] | other results |
| --- | --- | --- | --- | --- |
| C=C1C(=O)OC2C1CCC(=C)C1CC(OC(C)=O)C(=C)C12 (centres unmarked) [Compound 9, Zaluzanin D] | – | – | – | SI (Selectivity Index) [3]: 1.4; IC50 [3]: 10.8 µM; IC50 [4]: 15.6 µM |
| CC(=O)OC1(C)CCC2C(CNCCc3ccc(Cl)cc3)C(=O)OC2C2=C(C)C(=O)CC21 (centres unmarked) [Compound 34, 2-(4-Chlorophenyl)ethylamine adduct] | 22.5 ± 1.6 µM | 4.2 | 5.4 ± 1.1 µM | – |
| C=C1C(=O)O[C@H]2[C@H]1CC/C(C)=C/CC[C@@]1(C)O[C@@H]21 [Compound 8, parthenolide] | – | – | – | SI (Selectivity Index) [3]: 6.5; IC50 [3]: 0.8 ± 0.5 µM; IC50 [4]: 5.2 ± 0.9 µM |
| CC1C(=O)OC2C1CCC1(C)C=CC(=O)C(C)C21 (centres unmarked) [Compound 18] | – | 2.6 | – | IC50 [1, 7]: 34 ± 1.5 µM; IC50 [2, 8]: 12.9 ± 2.4 µM |
| C=C1CC(O)C2C(CN(C)C)C(=O)OC2C2C(=C)C(O)CC12 (centres unmarked) [Compound 20, Deacylcynaropicrin dimethylamine adduct] | 8.6 ± 1.3 µM | 2.5 | 3.6 ± 1 µM | – |
| CCN(CC)CC1C(=O)OC2C3=C(C)C(=O)CC3C(C)(O)CCC12 (centres unmarked) [Compound 21, Deacylated diethylamine adduct] | 9.4 ± 2.2 µM | 2.2 | 4.2 ± 0.8 µM | – |
| C=C1C(=O)OC2C3=C(C)C(=O)CC3C(C)(OC(C)=O)CCC12 (centres unmarked) [Compound 10] | 4.3 ± 0.5 µM | 7.6 | 0.7 µM | IC50 [2, 9]: 0.6 ± 0.2 µM |
| CC(=O)OC1(C)CCC2C(C)C(=O)OC2C2=C(C)C(=O)CC21 (centres unmarked) [Compound 16] | > 292 µM | >6.4 | 46 µM | IC50 [2, 9]: 45.7 ± 5 µM |
| CC12CCC3C(CNCCc4ccc(O)cc4)C(=O)OC3C13C=CC(=O)C23C (centres unmarked) [Compound 30, Tyramine adduct] | 31.8 ± 1.3 µM | 3.2 | 9.9 ± 1.6 µM | – |
| C=C1CC(O)C2C(=C)C(=O)OC2C2C(=C)C(O)CC12 (centres unmarked) [Compound 5, Deacylcynaropicrin] | – | – | – | SI (Selectivity Index) [3]: 3.9; IC50 [3]: 4.9 ± 0.34 µM; fold lower cytotoxicity as compared to 1 ([1]; compared to compound 1): nine; IC50 [4]: 19 µM and 19.2 µM; fold lower antitrypanosomal activity as compared to 1 ([2]; compared to compound 1): 16 fold |
| C=C1C(=O)O[C@@H]2[C@H]1CC[C@H](C)[C@]1(CCC(=O)O1)[C@@]2(C)O [Compound 11, Psilostachyin A] | 6.9 ± 1.8 µM | 1.2 | 5.8 ± 0.7 µM | – |
| C=C1C(=O)O[C@@H]2/C=C(\C)CC/C=C(\C)C[C@@H](OC(=O)/C(=C/CO)CO)[C@@H]12 [Compound 13, Eupatoriopicrin] | – | – | – | SI (Selectivity Index) [3]: 1.3; IC50 [3]: 1.2 ± 0.2 µM; IC50 [4]: 1.6 ± 0.1 µM |
| C=C(CO)C(=O)O[C@H]1C/C(C)=C\CC/C(CO)=C\[C@H]2OC(=O)C(=C)[C@H]12 [Compound 2, Onopordopicrin] | – | – | – | SI (Selectivity Index) [3]: 8.2; IC50 [3]: 0.4 ± 0.01 µM; IC50 [4]: 3.1 ± 1.1 µM |
| C=C1C(=O)O[C@@H]2/C=C(\C)CC/C=C(\C)CC[C@@H]12 [Compound 7, costunolide] | – | – | – | SI (Selectivity Index) [3]: 5.9; IC50 [3]: 1.3 ± 0.4 µM; IC50 [4]: 7.7 ± 1.3 µM |
| C=C[C@@]12COC(=O)C(=C)[C@@H]1[C@H]1OC(=O)C(=C)[C@@H]1[C@@H](OC(=O)C(=C)CO)C2 [Compound 4, Vernodalin] | 0.6 ± 0.02 µM | 3 | 0.2 ± 0.01 µM | – |
| CC1=C2C3OC(=O)C(CN4CCN(c5ccccc5Cl)CC4)C3CCC2(C)C=CC1=O (centres unmarked) [Compound 31, 1-(2-Chlorophenyl)piperazine adduct] | > 20 µM | 3.1 | > 5 µM | IC50 ([1]; cytotoxicity, 70 h incubation, average of three independent assays): 21.8 ± 2.7 µM; IC50 [2, 9]: 7 ± 2.2 µM |
